The nature of data set [1]: Electrophoresis of polyanionic property on cellulose acetate membrane. The format is physicochemical. The settings on record: 0.2 N hydrochloric acid, about 65 mA for 65 minutes; for DISTANCE (CM): electrophoretic migration from cathode end, toluidine blue stain. Here is the method: The unique polyanionic property of polysulfated glycosaminoglycan (PSGAG) is determined by electrophoresis. A 70 mm cellulose acetate (CA) membrane, saturated with 0.2 N hydrochloric acid is suspended with contact between the cathode and anode of an electrophoresis chamber. A test solution of PSGA G containing about 1 microgram of PSGAG is applied to the cathode end of the strip. A current of about 65 mA is applied for 65 minutes. The CA membrane is removed from the tank, then stained with a 0.1% toluidine blue solution for 5 minutes. The CA membrane is rinsed with a sufficient quantity of water to remove the excess toluidine blue. On the strip, PSGAG appears as only one violet-blue spot at a distance of approximately 3 cm from its starting point.
The cathode is the negative terminal of the electrophoresis chamber. Anionic compounds, such as PSGAG, under an applied current will migrate towards the chamber's anode (i.e., its positive terminal). The polyanionic property of PSGAG was compared to hyaluronic acid, chondroitin sulfate A, chondroitin sulfate B (dermatan sulfate), chondroitin sulfate C, heparin sulfate and keratan sulfate using electrophoresis.

Another data set concerns the target stromelysin (Homo sapiens, UniProt P08254). Particulars: cited from earlier work.
For data set [2] the following is noted: rabbits, IM injection; incl. articular cartilage, synovial fluid, kidneys, brain, liver, skin, heart; cited from earlier work.
The next data set deals with metalloproteases. Particulars: cited from earlier work.
A further data set concerns the target cathepsin B1 (Homo sapiens, UniProt P07858). Particulars: cited from earlier work.
Data set [3] deals with Prostaglandin E2 (PGE2) synthesis. Particulars: cited from earlier work.
The subject of another data set is hyaluronidases. The settings on record: cited from earlier work.
A further data set relates to human chondrocytes. Particulars: cultured human chondrocytes; cited from earlier work.
The next data set concerns rabbit chondrocytes. The settings on record: cultured rabbit chondrocytes; cited from earlier work.
Another data set concerns elastase. Particulars: cited from earlier work.
Another data set concerns serine proteinases. Particulars: in vitro; cited from earlier work.
For the next data set, the system named is synovial membrane cells. The settings on record: synovial membrane cells in vitro; cited from earlier work.

Sequence of stromelysin (P08254 100-477): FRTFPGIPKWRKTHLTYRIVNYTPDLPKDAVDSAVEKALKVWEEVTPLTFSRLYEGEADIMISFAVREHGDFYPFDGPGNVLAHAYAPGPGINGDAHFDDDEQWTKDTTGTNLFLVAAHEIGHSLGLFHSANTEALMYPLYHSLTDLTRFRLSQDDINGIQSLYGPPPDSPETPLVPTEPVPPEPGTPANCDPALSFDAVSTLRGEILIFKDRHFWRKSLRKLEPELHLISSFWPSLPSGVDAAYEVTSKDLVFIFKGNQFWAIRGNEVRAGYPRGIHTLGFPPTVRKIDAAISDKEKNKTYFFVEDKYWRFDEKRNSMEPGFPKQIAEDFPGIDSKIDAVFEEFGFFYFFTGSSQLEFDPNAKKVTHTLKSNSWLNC

Consider chondroitin sulfate C, for which the “DISTANCE (CM)” value in data set [1] is 2.0 ± 0.3 (n = 2) CM.
On the same count and under the same terms, next, heparin sulfate: 2.3 ± 0.0 (n = 2) CM.
Same read-out and setting: to keratan sulfate [Keratin Sulfate] belongs 2.5 ± 0.1 (n = 2) CM.
The same measure, in the same setting: to hyaluronic acid belongs 1.1 ± 0.1 (n = 2) CM; to chondroitin sulfate A, 2.1 ± 0.0 (n = 2) CM; to “chondroitin sulfate B (dermatan sulfate)”, 1.7 ± 0.0 (n = 2) CM.
For the substance polysulfated glycosaminoglycan [PSGAG], the inhibition of stromelysin entry on stromelysin was “inhibit”. In addition, the tissue distribution result in [2] is given as “distributed to all tissues studied”. Besides, the inhibition of metalloproteases entry in the data set with metalloproteases is listed as “inhibit”. On cathepsin B1, the “inhibition of cathepsin B1” value was “inhibit”. The “inhibition of Prostaglandin E2 (PGE2) synthesis” value in data set [3] was “inhibitor”. Besides, the inhibition of hyaluronidases entry in the data set on hyaluronidases was “inhibit”. For the same substance, the “synthesis of proteoglycan and hyaluronic acid” value in the data set with human chondrocytes is on record as “increased synthesis”. For the same substance, in the data set on rabbit chondrocytes, the “synthesis of proteoglycan and hyaluronic acid” value is listed as “increased synthesis”. Moreover, the inhibition of elastase entry with elastase is recorded as “inhibit”. The “inhibition of serine proteinases” value in the data set on serine proteinases is listed as “significantly inhibit”. For the same substance, the “effect on hyaluronic acid synthesis” value in the data set on synovial membrane cells is “specific potentiating effect”. Also, in [1], the “distance of the violet-blue spot from its starting point” value is “approximately 3 cm” and the “DISTANCE (CM)” value was 3.1 ± 0.3 (n = 12) CM.

The values are drawn from patent publication US12636309B2, “Storage stable formulations of sulfated glycosaminoglycans and fragments derived therefrom for the treatment of pain and other medical conditions” (ADORA ANIMAL HEALTH CORPORATION, priority 2022, dated 2026).
